Patent publication US20120093836A1, “PHARMACEUTICAL COMPOSITIONS FOR TREATING METASTASIS” (UNIVERSIDAD DEL PAIS VASCO, priority 2009, published 2012)

Assays:
TNF-α = assay: Production of TNF-α by the HSE (ELISA of supernatants); format: cell-based, mouse; settings: IL-1β receptor blocked
Method: The concentration of TNF-α and IL-18 in the supernatants was determined using a monoclonal antibody-based commercial ELISA kit (R&D Systems) following the manufacturer's instructions. The tumor adhesion assays of C. albicans-induced tumor adhesion and B16 melanoma tumor cell proliferation assays in response to C. albicans (both described above) were performed in collaboration with the company, Pharmakine S.L.
The stimulation of the endothelium causes a cascade of cytokine which ends with the expression of adhesion molecules such as the VCAM-1 (Mendoza (cited at supra) 1998, Vidal-Vanaclocha et al. 2000. PNAS, 97: 734-739) wherein the tumor cells are adhered. To know whether the process triggered by the MNF which as a consequence caused the increase of the adhesion of MB16 cells to the HSE was also mediated by cytokines, the concentration of TNF-α, the cytokine which is described as one of the first and most important cytokines acting in the proinflammatory cascade described in the HSE was measured.

[1] = test system: adhesion of MB16 cells to the HSE (hepatic sinusoidal endothelium); assay: Tumor adhesion assay for C. albicans-induced tumor adhesion (fluorescence, BCECF-AM labelled MB16 cells on HSE); format: cell-based, mouse; settings: IL-1β receptor blocked, added 15 minutes before MNF
Method: The adhesion was measured using the method based on the fluorescence measurement. The MB16 cells were resuspended in a solution of 2′,7′-bis-(2-carboxyethyl)-5.6-carboxyfluorescein acetoxymethyl ester (BCECF-AM) in DMEM-HEPES (40 μg/ml) and were incubated for 20 minutes at 37° C. The cells were then washed and resuspended in DMEM-HEPES at a concentration of 2×10^5 cells/ml. The autofluorescence of the HSE culture was determined.
Subsequently, the HSE cells were incubated with different strains and extracts of C. albicans (5×10^5 cells/well), MNF (2 μg carbohydrate/ml), EC (2 μg carbohydrate/ml), PF (2 μg protein/ml) or commercial mannan from Saccharomyces cerevisiae (100 μg/ml) for 8 hours. The non-treated HSE cells received basal medium as control. […]
Once the time of adhesion ended, the co-cultures were excited with light of wavelength 488 nm and the fluorescence emitted at 530 nm by the BCEF incorporated to the tumor cells in the scanning fluorometer in plate was recorded. […] Subsequently, 1 ml of the same adhesion medium was added in each well and the fluorescence emitted was read. Thus a relative value (in arbitrary units of fluorescence intensity) could be determined with respect to the number of tumor cells added. […]

**Q.** Which “effect on the release of TNF-α by the endothelium stimulated by the mannoproteins of C. albicans (in words)” value (TNF-α) does the source give for “IL-Ra: IL-1β receptor antagonist molecule (Amgen Biologicals)” here?
**A.** partially reduces

**Q.** And the “effect on the increase of the tumor adhesion to the HSE induced by the MNF (in words)” value [1]?
**A.** completely inhibits
